Entries after “also recorded” stand apart in the source; their conditions may differ. Where a name gives a salt, the structure may show the parent alone. Starred links: 1 amine or outer side, 2 acyl side, 3 side chain; linkers in the order of their positions; H or OH if unused. Residues, ends and D or L forms follow the SMILES beside them. *: point of attachment. Doxorubicin(3'-N) = COc1cccc2c1C(=O)c1c(O)c3c(c(O)c1C2=O)C[C@@](O)(C(=O)CO)C[C@@H]3O[C@H]1C[C@H](N*)[C@H](O)[C@H](C)O1; Suc = O=C(CCC(=O)[*:2])[*:1]
Assays:
[1] = Metabolic half-life in mice blood
Cathepsin B = Cathepsin B (Homo sapiens, UniProt P07858); assay: In vitro binding to cathepsin absorbed on a 96-well plate (fluorescence of bound drug); details: FIG. 1
Excerpt: The R6 group allows the drug to be able to target cathepsin (Cathepsin B) in the tumor microenvironment and inhibit the activity of cathepsin necessary for tumor growth, development and metastasis. […] The R6 group also allows the drug to have an additional function of targeting tumor, thus the drug has two targeted effects.
The test method was described as follows. Cathepsin was absorbed on a 96-well plate and blocked with BSA. Succinyl-AANL-DOX (SEQ ID NO: 2), S1 and a mixture of S1 and E-64 (an inhibitor for specific binding of cathepsin) were added to allow them to bind to the cathepsin on the 96-well plate. The unbound drugs were removed and the fluorescence of the bound drug was detected.

serum albumin = serum albumin (Mus musculus, UniProt P07724); details: blood taken 10 minutes after intravenous tail injection
Sequence of serum albumin (P07724 25-608): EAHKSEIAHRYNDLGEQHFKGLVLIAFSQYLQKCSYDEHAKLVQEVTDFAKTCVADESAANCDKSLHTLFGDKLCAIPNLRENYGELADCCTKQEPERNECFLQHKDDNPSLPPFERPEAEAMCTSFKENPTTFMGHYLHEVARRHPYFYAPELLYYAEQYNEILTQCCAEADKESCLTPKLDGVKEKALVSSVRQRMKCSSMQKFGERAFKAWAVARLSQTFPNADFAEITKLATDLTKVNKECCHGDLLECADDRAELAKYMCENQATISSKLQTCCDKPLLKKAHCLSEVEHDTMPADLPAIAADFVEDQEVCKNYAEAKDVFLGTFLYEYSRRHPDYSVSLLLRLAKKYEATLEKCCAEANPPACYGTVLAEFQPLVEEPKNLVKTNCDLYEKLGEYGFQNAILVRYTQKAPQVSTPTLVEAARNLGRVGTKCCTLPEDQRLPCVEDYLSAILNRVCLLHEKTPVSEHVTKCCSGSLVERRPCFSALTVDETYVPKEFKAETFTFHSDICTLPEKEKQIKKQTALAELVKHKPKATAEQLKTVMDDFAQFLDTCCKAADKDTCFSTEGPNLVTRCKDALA
Procedure: Bloods were taken after 10 minutes and centrifuged to obtain serum. The proteins in the serum were precipitated by 70% ethanol.

[2] = Maximum tolerated dose (MTD) / acute toxicity of a single injection in mice; details: female, BALB/C, mouse, in vivo
Excerpt: (§1) Test purpose: to investigate the acute toxicity of the subject new drug formulation via MTD assay by intravenous administration to mice.
(§2) Test drug: S1 and S2 injections, diluted to the corresponding concentrations with physiological saline when tested.
(§3) Animal: the first class BALB/C mice, weighing 19-21 g and all mice being female.
(§4) Method and results: 36 female BALB/C mice weighing 19-21 g were randomly divided into 6 groups according to their body weights, with 6 mice in each group. […] Control tests were performed by injecting 0.2 ml physiological saline or doxorubicin hydrochloride. […] Blood samples were taken on the 3, 5 and 14 days for counting the whole blood cells. Animals were anatomized on day 14 to take the heart, liver, kidney, lung, spleen, and pancreas for HE staining.
(§5) The MTD for intravenous administration of a test drug is an important reference index for drug toxicity.

BALB/C mice = assay: as above
Excerpt: as §1, §2, §3, §4, §5

MDA-MB231 cells = assay: Efficacy in MDA-MB231 tumor model in nude mice; format: in vivo
Excerpt: Test purpose: to investigate the anti-tumor efficacy of S1 and S2 via mouse tumor treatment model.
Test drug: S1 and S2 injections, and doxorubicin hydrochloride injection, diluted to corresponding concentrations by physiological saline when testing.
1. Animal: nude mice of 6-8 weeks old, all female.
1) MDA-MB231 cells were purchased from American type culture collection (ATCC) and identified according the specification provided by ATCC.
2) Production of tumor. […] Mice were randomly grouped after the diameter of the tumor reached about 0.3 cm to 0.4 cm. Then treatment began.
(§6) According to the clinical application of S1 and S2, drugs were intraperitoneally injected. A dose of 30 mg/kg (<1/2 MTD) was used for the S1 treatment group, 30 mg/kg (<1/2 MTD) for the S2 treatment group, and 4 mg/kg (>1/2 MTD) for doxorubicin hydrochloride. The control group was administered with physiological saline. The drugs were administered twice weekly for three weeks.

4T1 cells = assay: Efficacy in 4T1 tumor metastasis (lung) model in BALB/C mice; format: in vivo
Excerpt: Test purpose: to investigate the anti-tumor efficacy of S1 and S2 in a tumor metastasis treatment model from BALB/C mice.
Test drug: S1 and S2 injections, and doxorubicin hydrochloride injection, diluted to corresponding concentrations with physiological saline when testing.
1. Animal: BALB/C mice of 6-8 weeks old, all female.
1) 4T1 cells were purchased from American type culture collection (ATCC) and identified according the specification provided by ATCC. Cells were cultivated in DMEM culture medium containing 10% fetal bovine serum at 37° C. and 5% CO2. The cells were passaged for every three days and cells within the 15th passage were used.
2) Production of tumor metastasis. 10^6 […] were subcutaneously injected to the back of the BALB/C mice. Mice were randomly grouped after the tumor grew to about 1.5 cm. The subcutaneous tumor was removed by surgery and drug treatment began. Mice were killed after anesthesia on day 27. The whole lung was taken out and put into Bouin's solution for staining. The number of the tumor metastasized to lung was counted with anatomical microscope.
as §6, with “3) Course of treatment. According” for “According”, “10 μmol/kg (<1/10” for “30 mg/kg (<1/2”, “3 μmol/kg” for “4 mg/kg”, “daily” for “twice weekly”, “8 days.” for “three weeks.”

[3] = 10 mg/kg, single injection, 6 female BALB/C mice
[4] = lung, day 27, i.p. daily for 8 days, S1, S2 10 μmol/kg, doxorubicin hydrochloride 3 μmol/kg

COc1cccc2c1C(=O)c1c(O)c3c(c(O)c1C2=O)C[C@@](O)(C(=O)CO)C[C@@H]3O[C@@H]1C[C@H](NC(=O)[C@H](CC(C)C)NC(=O)[C@H](CC(N)=O)NC(=O)[C@H](C)NC(=O)[C@H](C)NC(=O)OC(C)(C)C)[C@H](O)[C@H](C)O1 [BOC-AANL-DOX]
Metabolic half-life in the mice blood [1]: 42 min

CC(C)C[C@H](NC(=O)[C@H]1O[C@@H]1C(=O)O)C(=O)NCCCCN=C(N)N [Example E-64, E-64, reference compound]
Competitive inhibition of the binding of S1 to cathepsin (Cathepsin B; mixture of S1 and E-64): could competitively inhibit the binding of S1; also recorded: binding can be inhibited by cathepsin inhibitor E-64

COc1cccc2c1C(=O)c1c(O)c3c(c(O)c1C2=O)C[C@@](O)(C(=O)CO)C[C@@H]3O[C@H]1C[C@H](NC(=O)[C@H](CC(C)C)NC(=O)[C@H](CC(N)=O)NC(=O)[C@H](C)NC(=O)[C@H](C)NC(=O)CCC(=O)O)[C@H](O)[C@H](C)O1 [Succinyl-AANL-DOX, reference compound] (Suc-AANL-{Doxorubicin(3'-N)})
Binding to cathepsin (Cathepsin B; cathepsin absorbed on 96-well plate, blocked with BSA): did not bind to absorbed cathepsin | Binding to serum albumin / plasma protein in blood (serum albumin): did not bind to serum albumin in the blood plasma | Metabolic half-life in the mice blood [1]: 2220 min

COc1cccc2c1C(=O)c1c(O)c3c(c(O)c1C2=O)C[C@@](O)(C(=O)CO)C[C@@H]3O[C@H]1C[C@H](N)[C@H](O)[C@H](C)O1 [doxorubicin hydrochloride, reference compound]
MTD at 17 days [2]: 4 to 8 µmol/kg | Mortality rate (%) (BALB/C mice; [3]): 100% | Number of dead animal (BALB/C mice; [3]): 6 | MDA-MB231 (BALB/C mice; Table 4, toxicity by the method of Test Example 1): 7 mg/kg | Inhibitory rate of tumor, 20 days (MDA-MB231 cells; 20 days, i.p. twice weekly for three weeks, S1, S2 30 mg/kg, doxorubicin hydrochloride 4 mg/kg): 7.4% | Size of tumor (mm^3), 20 days (MDA-MB231 cells; 20 days, i.p. twice weekly for three weeks, S1, S2 30 mg/kg, doxorubicin hydrochloride 4 mg/kg, nude mice): 358.7 ± 39.7 mm^3 | Inhibitory rate of tumor, 38 days (MDA-MB231 cells; 38 days, i.p. twice weekly for three weeks, S1, S2 30 mg/kg, doxorubicin hydrochloride 4 mg/kg): 29.1% | Size of tumor (mm^3), 38 days (MDA-MB231 cells; 38 days, i.p. twice weekly for three weeks, S1, S2 30 mg/kg, doxorubicin hydrochloride 4 mg/kg, nude mice): 881.2 ± 86.5 mm^3 | Tumor-inhibitory rate (day 38) (MDA-MB231 cells; day 38, same method as Test Example 2): 29.1% | Inhibitory rate on metastasis (4T1 cells; [4]): 31.4% | Number of metastasized tumor (4T1 cells; [4]): 98 ± 18 | Metastasis-inhibitory rate (4T1 cells; same method as Test Example 3): 31.4%

— patent US9982011B2, “Legumain activated doxorubicin derivative as well as preparation method and application thereof” (priority 2012, dated 2018)
